Consider seven molecules from ChEMBL document CHEMBL5465560, “Selectivity Literature for EUbOPEN Chemogenomic Library” (2024).

SMILES strings stand for the structures.

Test [1] in a line: Selectivity interaction (Ambit KINOMEscan and KiNATiv profiling in Jurkat cells) EUB0000090b CDPK1. Conditions: Selectivity number of off-targets 9; Selectivity number of targets 456; Source Knowledge https://www.nature.com/articles/nchembio.2166; at 1 µM.
Test [2] relates to Tyrosine-protein kinase ABL1 (Homo sapiens), P00519 [H396P]. The test can be described thus: Selectivity interaction (KinomeScan (DiscoverX)) EUB0000607a ABL1. To be noted: at 10 µM.
For test [3], the target named is Phosphorylase b kinase gamma catalytic chain, skeletal muscle/heart isoform (Homo sapiens) (UniProt Q16816). To be noted: at 10 µM.
For test [4], the target named is T1, Mitogen-activated protein kinase kinase kinase 5 (Homo sapiens) (UniProt Q99683).
T1 sequence (whole entry): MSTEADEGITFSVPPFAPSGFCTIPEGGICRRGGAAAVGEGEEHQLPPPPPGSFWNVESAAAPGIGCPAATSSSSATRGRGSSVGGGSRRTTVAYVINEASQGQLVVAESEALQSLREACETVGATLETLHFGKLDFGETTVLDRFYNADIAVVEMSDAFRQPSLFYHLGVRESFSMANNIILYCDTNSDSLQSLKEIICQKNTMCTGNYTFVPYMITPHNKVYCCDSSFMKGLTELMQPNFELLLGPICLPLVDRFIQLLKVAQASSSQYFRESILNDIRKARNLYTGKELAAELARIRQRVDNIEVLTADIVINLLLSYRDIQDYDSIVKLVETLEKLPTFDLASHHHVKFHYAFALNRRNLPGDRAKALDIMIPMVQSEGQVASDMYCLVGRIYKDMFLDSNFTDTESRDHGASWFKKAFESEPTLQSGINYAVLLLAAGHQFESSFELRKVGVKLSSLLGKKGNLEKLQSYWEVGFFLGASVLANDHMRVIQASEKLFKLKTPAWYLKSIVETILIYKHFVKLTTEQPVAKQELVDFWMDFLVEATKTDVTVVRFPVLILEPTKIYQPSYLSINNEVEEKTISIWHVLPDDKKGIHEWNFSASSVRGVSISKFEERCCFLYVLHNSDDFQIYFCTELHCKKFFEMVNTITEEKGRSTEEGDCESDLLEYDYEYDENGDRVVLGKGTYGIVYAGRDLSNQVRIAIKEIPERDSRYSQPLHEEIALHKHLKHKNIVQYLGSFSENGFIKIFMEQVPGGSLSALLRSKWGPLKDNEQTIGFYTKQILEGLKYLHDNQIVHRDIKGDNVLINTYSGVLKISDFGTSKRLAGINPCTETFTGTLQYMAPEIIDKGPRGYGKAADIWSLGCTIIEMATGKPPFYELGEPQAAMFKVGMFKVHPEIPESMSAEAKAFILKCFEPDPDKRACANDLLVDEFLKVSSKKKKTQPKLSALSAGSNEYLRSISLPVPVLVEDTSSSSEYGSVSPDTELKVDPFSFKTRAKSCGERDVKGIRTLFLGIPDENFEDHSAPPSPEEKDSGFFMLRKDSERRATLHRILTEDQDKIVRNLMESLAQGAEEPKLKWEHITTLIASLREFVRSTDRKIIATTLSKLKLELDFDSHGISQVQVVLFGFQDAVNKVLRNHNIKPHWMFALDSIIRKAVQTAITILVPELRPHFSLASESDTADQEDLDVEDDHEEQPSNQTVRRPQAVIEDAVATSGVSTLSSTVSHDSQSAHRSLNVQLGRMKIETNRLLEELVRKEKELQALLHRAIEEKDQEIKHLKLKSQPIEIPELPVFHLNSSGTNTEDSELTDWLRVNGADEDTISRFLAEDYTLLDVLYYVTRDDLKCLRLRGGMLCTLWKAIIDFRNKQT
The test can be described thus: Selectivity interaction (Kinase panel (DSF assay)) EUB0001558a MAP3K5.

For test [5], the target named is Serine/threonine-protein kinase 38 (Homo sapiens) (UniProt Q15208). The test can be described thus: Selectivity interaction (KinomeScan (DiscoverX)) EUB0000695a STK38. Conditions: at 100 nM.
Test [6] deals with Tyrosine-protein kinase Blk (Homo sapiens) (UniProt P51451). Briefly: Selectivity interaction (KinomeScan (DiscoverX)) EUB0000045b BLK.
Test [7] addresses T2, Serine/threonine-protein kinase LATS2 (Homo sapiens) (UniProt Q9NRM7).
T2 sequence (whole entry): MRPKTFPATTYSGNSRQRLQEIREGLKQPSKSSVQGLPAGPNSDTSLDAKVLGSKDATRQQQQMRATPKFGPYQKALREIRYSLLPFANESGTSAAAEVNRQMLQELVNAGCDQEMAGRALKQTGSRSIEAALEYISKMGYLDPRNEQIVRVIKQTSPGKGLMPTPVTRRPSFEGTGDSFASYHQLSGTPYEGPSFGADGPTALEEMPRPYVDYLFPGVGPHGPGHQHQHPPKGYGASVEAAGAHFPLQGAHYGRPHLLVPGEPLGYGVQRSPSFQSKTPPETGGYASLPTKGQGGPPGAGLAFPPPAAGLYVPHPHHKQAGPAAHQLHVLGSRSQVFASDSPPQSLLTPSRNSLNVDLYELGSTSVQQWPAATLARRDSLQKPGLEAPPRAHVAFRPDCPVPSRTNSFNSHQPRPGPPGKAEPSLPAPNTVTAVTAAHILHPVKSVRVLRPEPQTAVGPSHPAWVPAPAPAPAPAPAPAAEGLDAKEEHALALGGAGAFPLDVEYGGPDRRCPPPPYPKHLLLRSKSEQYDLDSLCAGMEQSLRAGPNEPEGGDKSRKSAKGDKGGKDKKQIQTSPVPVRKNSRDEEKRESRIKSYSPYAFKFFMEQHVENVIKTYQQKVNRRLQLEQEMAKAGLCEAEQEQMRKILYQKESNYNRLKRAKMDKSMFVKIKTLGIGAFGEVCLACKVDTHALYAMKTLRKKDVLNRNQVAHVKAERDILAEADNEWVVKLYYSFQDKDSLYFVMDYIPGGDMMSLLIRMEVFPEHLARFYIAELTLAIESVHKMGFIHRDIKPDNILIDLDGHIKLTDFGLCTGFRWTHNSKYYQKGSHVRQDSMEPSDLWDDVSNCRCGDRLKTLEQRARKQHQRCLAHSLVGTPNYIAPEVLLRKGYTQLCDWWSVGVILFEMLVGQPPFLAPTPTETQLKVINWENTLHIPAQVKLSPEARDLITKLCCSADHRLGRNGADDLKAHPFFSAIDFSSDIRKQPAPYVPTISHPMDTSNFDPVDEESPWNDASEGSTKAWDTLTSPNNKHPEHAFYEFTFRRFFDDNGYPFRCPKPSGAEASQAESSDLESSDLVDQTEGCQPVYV
Briefly: Selectivity interaction (KinomeScan (DiscoverX)) EUB0000618a LATS2. To be noted: at 10 µM.

Sequence of Tyrosine-protein kinase Blk (Homo sapiens) (P51451 2-505 limits assumed): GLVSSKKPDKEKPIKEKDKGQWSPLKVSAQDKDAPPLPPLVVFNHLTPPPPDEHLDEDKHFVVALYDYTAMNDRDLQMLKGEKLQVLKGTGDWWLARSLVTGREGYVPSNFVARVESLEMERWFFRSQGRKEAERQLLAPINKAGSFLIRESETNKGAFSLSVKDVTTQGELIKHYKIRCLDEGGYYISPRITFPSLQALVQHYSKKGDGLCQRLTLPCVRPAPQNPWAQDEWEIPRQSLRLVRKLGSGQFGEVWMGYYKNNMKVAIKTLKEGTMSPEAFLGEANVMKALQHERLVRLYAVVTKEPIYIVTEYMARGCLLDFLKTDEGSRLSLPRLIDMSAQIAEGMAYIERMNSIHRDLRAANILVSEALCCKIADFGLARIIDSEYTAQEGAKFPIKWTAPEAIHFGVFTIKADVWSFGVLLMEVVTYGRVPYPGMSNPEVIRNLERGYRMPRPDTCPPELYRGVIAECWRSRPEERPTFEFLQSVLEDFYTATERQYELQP
Sequence of Serine/threonine-protein kinase 38 (Homo sapiens) (Q15208 2-465 limits assumed): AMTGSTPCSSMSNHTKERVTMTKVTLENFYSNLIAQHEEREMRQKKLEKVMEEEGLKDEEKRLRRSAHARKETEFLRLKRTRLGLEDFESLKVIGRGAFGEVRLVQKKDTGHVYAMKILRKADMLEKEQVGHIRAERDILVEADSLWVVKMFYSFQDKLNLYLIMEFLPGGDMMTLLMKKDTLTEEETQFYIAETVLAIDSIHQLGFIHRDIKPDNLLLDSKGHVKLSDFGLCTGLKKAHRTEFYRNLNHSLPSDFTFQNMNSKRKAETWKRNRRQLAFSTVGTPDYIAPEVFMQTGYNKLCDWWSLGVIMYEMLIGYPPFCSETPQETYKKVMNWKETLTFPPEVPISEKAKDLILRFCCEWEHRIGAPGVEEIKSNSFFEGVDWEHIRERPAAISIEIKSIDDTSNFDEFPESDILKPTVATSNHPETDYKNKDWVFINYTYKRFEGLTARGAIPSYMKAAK
Sequence of Phosphorylase b kinase gamma catalytic chain, skeletal muscle/heart isoform (Homo sapiens) (Q16816 whole entry, looked up, canonical isoform): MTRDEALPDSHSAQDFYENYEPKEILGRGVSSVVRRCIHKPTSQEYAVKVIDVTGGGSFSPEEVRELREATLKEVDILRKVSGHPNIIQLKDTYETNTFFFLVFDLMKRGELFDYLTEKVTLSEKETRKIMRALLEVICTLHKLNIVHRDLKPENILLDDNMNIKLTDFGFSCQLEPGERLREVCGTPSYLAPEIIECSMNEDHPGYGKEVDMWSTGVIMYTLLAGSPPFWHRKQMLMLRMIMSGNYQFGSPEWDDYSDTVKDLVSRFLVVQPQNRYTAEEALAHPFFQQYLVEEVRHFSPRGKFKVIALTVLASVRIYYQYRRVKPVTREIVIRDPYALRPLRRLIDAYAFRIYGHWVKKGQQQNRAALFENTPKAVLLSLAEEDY

For the molecule `CN(C)C/C=C/C(=O)Nc1ccc(C(=O)N2CCCC(Nc3ncc(Cl)c(-c4c[nH]c5ccccc45)n3)C2)cc1` (stereo not drawn), the “% of control” value in test [1] was found to be 7%.
In test [2], `CNC(=O)Nc1ccc(-c2nc(N3CC4CCC(C3)O4)c3cnn(C4CCC5(CC4)OCCO5)c3n2)cc1` gave a % of control of 100%.
In the case of `Cc1cc([C@@H](C)Nc2ccccc2C(=O)O)c2nc(N3CCOCC3)cc(=O)n2c1` [AZD-6482], the % of control in test [3] is 93%.
Regarding `CC(C)(O)[C@H](F)CN1Cc2cc(NC(=O)c3cnn4cccnc34)c(N3CCOCC3)cc2C1=O`, the dTM in test [4] came out at 0.5 K.
Turning to `Cc1cc(F)c(C(=O)Nc2cccc(-c3nncn3C(C)C)n2)cc1-n1cnc(C2CC2)c1`, in test [5], the % of control is 93%.
Take `C=CC(=O)Nc1cc(-n2c(=O)ccc3cnc4ccc(-c5ccc(NS(C)(=O)=O)cc5)cc4c32)ccc1C`: the figures for the % of control in test [6] (at 1 µM) and in test [6] (at 10 µM) were 40% and 4.8%, respectively.
In test [7], `O[C@H]1CC[C@H](Nc2ncc3nc(Nc4c(F)cc(F)cc4F)n([C@H]4CCOC4)c3n2)CC1` came in with a % of control of 88%.
